Data taken from ChEMBL document CHEMBL2396558, “Orthogonal chemistry for the synthesis of thiocoraline-triostin hybrids. Exploring their structure-activity relationship” (2013).
Positions of bridges follow the written chain, without caps; N, C: chain ends. Non-standard residues stand in square brackets, D forms with d. Residues, ends and D or L forms follow the SMILES beside them. Chains are numbered I, II in the order given. *: point of attachment. Quinoxaline2carbonyl = O=C(c1cnc2ccccc2n1)*; NMeV = CN[C@H](C(=O)O)C(C)C; NMeC = CN[C@@H](CS)C(=O)O

Assays:
Assay type in all cases: functional
MDA-MB-231 = assay: Cytotoxicity against human MDA-MB-231 cells after 72 hrs by sulforhodamine B assay; conditions: MDA-MB-231, 72 h
HT-29 = assay: Cytotoxicity against human HT-29 cells after 72 hrs by sulforhodamine B assay; conditions: HT-29, 72 h; for CC50: read-out: LC50 (the source's name)
A549 = assay: Cytotoxicity against human A549 cells after 72 hrs by sulforhodamine B assay; conditions: A549, 72 h; for CC50: read-out: LC50 (the source's name)

Row | Compound | GI50 (MDA-MB-231) [nM] | LC50 (concentration killing 50% of cells) (MDA-MB-231) [µM] | TGI (MDA-MB-231) [nM] | GI50 (HT-29) [µM] | TGI (HT-29) [µM] | CC50 (HT-29) [µM] | GI50 (A549) [nM] | TGI (A549) [µM] | CC50 (A549) [µM]
1 | CSC[C@H]1C(=O)OC[C@@H](NC(=O)c2nc3ccccc3cc2O)C(=O)NCC(=O)N(C)[C@H]2CSSC[C@@H](C(=O)N1C)N(C)C(=O)CNC(=O)[C@H](NC(=O)c1nc3ccccc3cc1O)COC(=O)[C@H](CSC)N(C)C2=O | 462 | 6.4 | 2750 | 0.4 | 3.55 | 7.55 | 311 | 2.75 | 7.91
2 | CN1C[C@@H](NC(=O)c2nc3ccccc3cc2O)C(=O)NCC(=O)N(C)[C@H]2CSSC[C@@H](C(=O)N(C)[C@@H](CN)C1=O)N(C)C(=O)CNC(=O)[C@H](NC(=O)c1nc3ccccc3cc1O)CN(C)C(=O)[C@H](CN)N(C)C2=O | 8950 | 8.95 | 8950 | 8.95 | 8.95 | 8.95 | 8950 | 8.95 | 8.95
3 | CC(C)[C@H]1C(=O)N(C)C[C@@H](NC(=O)c2cnc3ccccc3n2)C(=O)N[C@@H](C)C(=O)N(C)[C@H]2CSSC[C@@H](C(=O)N1C)N(C)C(=O)[C@H](C)NC(=O)[C@H](NC(=O)c1cnc3ccccc3n1)CN(C)C(=O)[C@H](C(C)C)N(C)C2=O | 5930 | > 8.98 | > 8980 | 8.44 | > 8.98 | > 8.98 | > 8980 | > 8.98 | > 8.98
4 | CSC[C@H]1C(=O)N(C)C[C@@H](NC(=O)c2cnc3ccccc3n2)C(=O)NCC(=O)N(C)[C@H]2CSSC[C@@H](C(=O)N1C)N(C)C(=O)CNC(=O)[C@H](NC(=O)c1cnc3ccccc3n1)CN(C)C(=O)[C@H](CSC)N(C)C2=O | 47.3 | > 8.92 | 1430 | 0.357 | > 8.92 | > 8.92 | 71.3 | > 8.92 | > 8.92
5 | CSC[C@H]1C(=O)N(C)C[C@@H](NC(=O)c2nc3ccccc3cc2O)C(=O)NCC(=O)N(C)[C@H]2CSSC[C@@H](C(=O)N1C)N(C)C(=O)CNC(=O)[C@H](NC(=O)c1nc3ccccc3cc1O)CN(C)C(=O)[C@H](CSC)N(C)C2=O | 4.08 | 0.373 | 42.6 | – | – | 0.747 | 3.39 | 0.02 | 0.165
6 | COCCOCCOCC(=O)NC[C@H]1C(=O)N(C)C[C@@H](NC(=O)c2nc3ccccc3cc2O)C(=O)NCC(=O)N(C)[C@H]2CSSC[C@@H](C(=O)N1C)N(C)C(=O)CNC(=O)[C@H](NC(=O)c1nc3ccccc3cc1O)CN(C)C(=O)[C@H](CNC(=O)COCCOCCOC)N(C)C2=O | > 7090 | > 7.09 | > 7090 | > 7.09 | > 7.09 | > 7.09 | > 7090 | > 7.09 | > 7.09
7 | CC(C)[C@H]1C(=O)OC[C@@H](NC(=O)c2nc3ccccc3cc2O)C(=O)N[C@@H](C)C(=O)N(C)[C@H]2CSSC[C@@H](C(=O)N1C)N(C)C(=O)[C@H](C)NC(=O)[C@H](NC(=O)c1nc3ccccc3cc1O)COC(=O)[C@H](C(C)C)N(C)C2=O | > 8920 | > 8.92 | > 8920 | > 8.92 | > 8.92 | > 8.92 | > 8920 | > 8.92 | > 8.92
8 | CSC[C@H]1C(=O)SC[C@@H](NC(=O)c2nc3ccccc3cc2O)C(=O)NCC(=O)N(C)[C@H]2SSC[C@@H](C(=O)N1C)N(C)C(=O)CNC(=O)[C@H](NC(=O)c1nc3ccccc3cc1O)CSC(=O)[C@H](CSC)N(C)C2=O [THIOCORALINE] | 2.07 | 0.0346 | 9.5 | – | – | 0.138 | 6.22 | 0.0242 | 0.095
9 | CC(C)[C@H]1C(=O)OC[C@@H](NC(=O)c2cnc3ccccc3n2)C(=O)N[C@@H](C)C(=O)N(C)[C@H]2CSSC[C@@H](C(=O)N1C)N(C)C(=O)[C@H](C)NC(=O)[C@H](NC(=O)c1cnc3ccccc3n1)COC(=O)[C@H](C(C)C)N(C)C2=O [TRIOSTIN] (I: Quinoxaline2carbonyl-[dS]A[NMeC][NMeV] / II: Quinoxaline2carbonyl-[dS]A[NMeC][NMeV]; ester I:1-II:C, I:C-II:1; disulfide I:3-II:3) | 202 | 1.56 | 515 | 0.23 | 2.85 | > 9.2 | 340 | 1.66 | > 9.2
10 | COCCOCCOCC(=O)NCC[C@H]1C(=O)N(C)C[C@@H](NC(=O)c2nc3ccccc3cc2O)C(=O)NCC(=O)N(C)[C@H]2CSSC[C@@H](C(=O)N1C)N(C)C(=O)CNC(=O)[C@H](NC(=O)c1nc3ccccc3cc1O)CN(C)C(=O)[C@H](CCNC(=O)COCCOCCOC)N(C)C2=O | > 6960 | > 6.96 | > 6960 | > 6.96 | > 6.96 | > 6.96 | > 6960 | > 6.96 | > 6.96
11 | CN1C[C@@H](NC(=O)c2nc3ccccc3cc2O)C(=O)NCC(=O)N(C)[C@H]2CSSC[C@@H](C(=O)N(C)[C@@H](CCN)C1=O)N(C)C(=O)CNC(=O)[C@H](NC(=O)c1nc3ccccc3cc1O)CN(C)C(=O)[C@H](CCN)N(C)C2=O | 8950 | 8.95 | 8950 | 8.95 | 8.95 | 8.95 | 8950 | 8.95 | 8.95
